Assay results from US20240041042A1, “1-(PYRIDYL)-5-AZINYLPYRAZOLE DERIVATIVES, AND THEIR USE FOR CONTROL OF UNDESIRED PLANT GROWTH” (Bayer Aktiengesellschaft, priority 2020, published 2024).
Like-named read-outs stand apart in the source and are kept apart here.

Legend:
Assay type in all cases: in vivo
[1] = system: Alopecurus myosuroides (ALOMY); assay: Pre-emergence herbicidal action against ALOMY; conditions: scored visually after about 3 weeks, 100% = plants have died
Summary of the method: (§1)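 Greenhouse pot trial: seeds sown, soil-covered, sprayed before emergence with compound in water (0.5% additive; 600 l/ha; ≤320 g/ha). Scoring visual, ~3 weeks, 0–100% scale vs untreated.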

[2] = system: Lolium rigidum (LOLRI); assay: Post-emergence herbicidal action against LOLRI; conditions: dosage 80 g/ha
Summary of the method: (§2)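 Values are percent visual activity (0% like control, 100% plants dead) after about 3 weeks in the greenhouse. Treatment: post-emergence spray at one-leaf stage, 600 l/ha spray volume, 0.5% additive, doses 320 g/ha or lower.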

[3] = system: Digitaria sanguinalis (DIGSA); assay: Post-emergence herbicidal action against DIGSA; conditions: 80 g/ha, visual rating about 3 weeks after treatment
Summary of the method: as §2

[4] = system: Abutilon theophrasti (ABUTH); assay: Post-emergence herbicidal action against ABUTH; conditions: 80 g/ha, visual rating about 3 weeks after treatment vs untreated controls (100% = plants have died, 0% = like control plants)
Summary of the method: as §2

[5] = system: Amaranthus retroflexus (AMARE); assay: Post-emergence herbicidal action against AMARE; conditions: 80 g/ha, visual rating about 3 weeks after treatment vs untreated controls (100% = plants have died, 0% = like control plants)
Summary of the method: as §2

[6] = system: Pharbitis purpurea (PHBPU); assay: Post-emergence herbicidal action against PHBPU; conditions: dosage 80 g/ha
Summary of the method: as §2

[7] = system: Amaranthus retroflexus (AMARE); assay: Pre-emergence herbicidal action against AMARE; conditions: visual scoring after about 3 weeks vs untreated controls
Summary of the method: as §1

[8] = system: Viola tricolor (VIOTR); assay: Pre-emergence herbicidal action against VIOTR; conditions: 320 g/ha, Viola tricolor
Summary of the method: as §1

[9] = system: Oryza sativa (ORYSA); conditions: pre-emergence, 80 g/ha, crop plant compatibility, in comparison to untreated controls
Summary of the method: (§3)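 Scoring: visual, % of untreated control, about 3 weeks after a pre-emergence application to the soil surface. Application used WP or EC formulations diluted in water with 0.5% additive at 600 l/ha; dosage levels are marked by suffixes a, b and c.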

[10] = system: Matricaria inodora (MATIN); assay: Post-emergence herbicidal action against MATIN; conditions: dosage 80 g/ha
Summary of the method: as §2

[11] = system: Echinochloa crus-galli (ECHCG); assay: Post-emergence herbicidal action against ECHCG; conditions: dosage 80 g/ha
Summary of the method: as §2

[12] = system: Viola tricolor (VIOTR); assay: Post-emergence herbicidal action against VIOTR; conditions: 80 g/ha
Summary of the method: as §2

[13] = system: Lolium rigidum (LOLRI); assay: Pre-emergence herbicidal action against LOLRI
Summary of the method: as §1

[14] = system: Polygonum convolvulus (POLCO); assay: Pre-emergence herbicidal action against POLCO; conditions: dosage 320 g/ha
Summary of the method: as §1

[15] = system: Avena fatua (AVEFA); assay: Post-emergence herbicidal action against AVEFA; conditions: 80 g/ha, visual rating about 3 weeks after treatment
Summary of the method: as §2

[16] = system: Setaria viridis (SETVI); assay: Pre-emergence herbicidal action against SETVI
Summary of the method: as §1

[17] = system: Echinochloa crus-galli (ECHCG); assay: Pre-emergence herbicidal action against ECHCG; conditions: dosage 320 g/ha
Summary of the method: as §1

[18] = system: Avena fatua (AVEFA); assay: Pre-emergence herbicidal action against AVEFA; conditions: 320 g/ha, visual scoring after about 3 weeks vs untreated controls
Summary of the method: as §1

[19] = system: Verconica persica (VERPE); assay: Pre-emergence herbicidal action against VERPE; conditions: dosage 320 g/ha
Summary of the method: as §1

[20] = system: Alopecurus myosuroides (ALOMY); assay: Post-emergence herbicidal action against ALOMY; conditions: 80 g/ha, visual rating about 3 weeks after treatment vs untreated controls (100% = plants have died, 0% = like control plants)
Summary of the method: as §2

[21] = system: Matricaria inodora (MATIN); assay: Pre-emergence herbicidal action against MATIN; conditions: dosage 320 g/ha
Summary of the method: as §1

[22] = system: Digitaria sanguinalis (DIGSA); assay: Pre-emergence herbicidal action against DIGSA
Summary of the method: as §1

[23] = system: Pharbitis purpurea (PHBPU); assay: Pre-emergence herbicidal action against PHBPU
Summary of the method: as §1

[24] = system: Verconica persica (VERPE); assay: Post-emergence herbicidal action against VERPE; conditions: dosage 80 g/ha
Summary of the method: as §2

[25] = system: Oryza sativa (ORYSA); conditions: crop plant compatibility
Summary of the method: (§4)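 Greenhouse crops in sandy loam sprayed post-emergence at the one-leaf stage, 2–3 weeks after sowing, with WP or EC formulations in water plus 0.5% additive at 600 l/ha. Damage rated visually about 3 weeks later versus untreated controls (0% = like control, 100% = dead); suffixes a–c denote different doses.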

[26] = system: Setaria viridis (SETVI); assay: Post-emergence herbicidal action against SETVI; conditions: dosage 80 g/ha
Summary of the method: as §2

[27] = system: Zea mays (ZEAMX); conditions: pre-emergence, 80 g/ha, crop plant compatibility, in comparison to untreated controls
Summary of the method: as §3

[28] = system: Zea mays (ZEAMX)
Summary of the method: as §4

[29] = 80 g/ha, visual scoring after about 3 weeks vs untreated controls
[30] = 20 g/ha, effect vs untreated controls
[31] = 80 g/ha, effect in comparison to untreated controls

Row | Structure (SMILES) | Pre-emergence action against ALOMY ([1]; 80 g/ha) [%] | Pre-emergence action against ALOMY ([1]; 320 g/ha) [%] | Post-emergence action against DIGSA in % [3] [%] | Post-emergence action against AMARE in % [5] [%] | Pre-emergence action against AMARE in % ([7]; 80 g/ha) [%] | Pre-emergence action against AMARE in % ([7]; 320 g/ha) [%] | Pre-emergence action against VIOTR in % [8] [%] | Pre-emergence action against ORYSA in % [9] [%] | Pre-emergence action against LOLRI in % ([13]; dosage 320 g/ha) [%] | Pre-emergence action against POLCO in % [14] [%] | Pre-emergence action against SETVI in % ([16]; dosage 80 g/ha) [%] | Pre-emergence action against SETVI in % ([16]; dosage 320 g/ha) [%] | Pre-emergence action against VERPE in % [19] [%] | Post-emergence action against ALOMY in % [20] [%] | Pre-emergence action against MATIN in % [21] [%] | Pre-emergence action against DIGSA in % [22, 29] [%] | Pre-emergence action against DIGSA in % ([22]; dosage 320 g/ha) [%] | Pre-emergence action against PHBPU in % ([23]; dosage 320 g/ha) [%] | Post-emergence action against VERPE in % [24] [%] | Post-emergence action against ORYSA in % [25, 30] [%] | also measured
1 | COC(=O)CNC(=O)COc1nn(-c2ccccn2)c(-c2ccc(F)nc2)c1Cl [Example I-64] | 90 | 100 | 90 | 90 | 100 | 100 | 90 | 20 | 100 | 90 | 90 | 100 | 90 | 100 | 90 | 100 | 100 | 90 | 90 | 10 | Post-emergence action against LOLRI in % [2]: 80%; Post-emergence action against ABUTH in % [4]: 90%; Post-emergence action against PHBPU in % [6]: 90%; Post-emergence action against MATIN in % [10]: 90%; Post-emergence action against ECHCG in % [11]: 90%; Post-emergence action against VIOTR in % [12]: 80%; Pre-emergence action against LOLRI in % ([13]; dosage 80 g/ha): 80%; Post-emergence action against AVEFA in % [15]: 80%; Pre-emergence action against ECHCG in % [17]: 100%; Pre-emergence action against AVEFA in % [18]: 90%; Pre-emergence action against PHBPU in % ([23]; dosage 80 g/ha): 90%; Post-emergence action against SETVI in % [26]: 90%
2 | O=C(COc1nn(-c2ccccn2)c(-c2ccc(F)nc2)c1Br)OCC1CCOC1 (stereo not drawn) [Example I-90] | 90 | 100 | 90 | 80 | 100 | 100 | 90 | 10 | 100 | 90 | 90 | 100 | 90 | 90 | 90 | 100 | 100 | 90 | 90 | 0 | Pre-emergence action against ZEAMX in % [27]: 20%; Pre-emergence action against ECHCG in % [17]: 100%; Post-emergence action against ZEAMX in % (crop plant compatibility) ([28]; 20 g/ha, ZEAMX, effect in comparison to untreated controls): 0%; Post-emergence action against ZEAMX in % ([28]; crop plant compatibility, 80 g/ha, effect vs untreated controls): 10%; Post-emergence action against ORYSA in % [25, 31]: 0%
3 | COC(=O)CNC(=O)COc1nn(-c2ccccn2)c(-c2ccc(F)nc2)c1Br [Example I-97] | 90 | 100 | 80 | 90 | 90 | 100 | 100 | 10 | 100 | 90 | 80 | 100 | 90 | 90 | 80 | 100 | 100 | 90 | 90 | 0 | Post-emergence action against ABUTH in % [4]: 90%; Post-emergence action against PHBPU in % [6]: 80%; Post-emergence action against MATIN in % [10]: 80%; Post-emergence action against ECHCG in % [11]: 80%; Post-emergence action against VIOTR in % [12]: 80%; Pre-emergence action against LOLRI in % ([13]; dosage 80 g/ha): 80%; Post-emergence action against AVEFA in % [15]: 80%; Pre-emergence action against AVEFA in % [18]: 80%; Post-emergence action against ORYSA in % [25, 31]: 10%; Post-emergence action against SETVI in % [26]: 80%
